Experimental data from US12708630B2, “Combined therapy of 4′-thio-5-aza-2′-deoxycytidine and Venetoclax” (PINOTBIO, INC., priority 2021, dated 2026).
pIC50: −log10 of the molar value.

What was measured:
Assay in all cases: drug activity profiling cytotoxicity
Assay type in all cases: cell-based
[1] = system: DMS114; settings: Homo sapiens, DMS-114; DMS114 cell line, Lung (SCLC); read-out: Aza-T-dCyd IC50
How it was run: (§1)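 Drug responsiveness to Aza-T-dCyd is profiled for cytotoxicity in 200 cell lines, combined with genomic analysis for biomarker search.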

[2] = system: Colo 205; settings: Homo sapiens; Colo 205 cell line, Colon; read-out: Aza-T-dCyd IC50
How it was run: as §1

[3] = system: HCT-116; settings: Homo sapiens; HCT-116 cell line, Colon; read-out: Aza-T-dCyd IC50
How it was run: as §1

[4] = system: OE21; settings: OE21 cell line, Head and Neck; read-out: Aza-T-dCyd IC50
How it was run: as §1

[5] = system: MDA MB 468; settings: Homo sapiens; MDA MB 468 cell line, Breast; read-out: Aza-T-dCyd IC50
How it was run: as §1

[6] = system: NCI-H508; settings: Homo sapiens; NCI-H508 cell line, Colon; read-out: Aza-T-dCyd IC50
How it was run: as §1

[7] = system: H4; settings: H4 cell line, CNS (Glioma); read-out: Aza-T-dCyd IC50
How it was run: as §1

[8] = system: HeLa; settings: Homo sapiens; HeLa cell line, Female GU (Cervix); read-out: Aza-T-dCyd IC50
How it was run: as §1

[9] = system: SU-DHL-4; settings: Homo sapiens; SU-DHL-4 cell line, B-cell lymphoma; read-out: Aza-T-dCyd IC50
How it was run: as §1

[10] = system: DMS273; settings: Homo sapiens, DMS-273; DMS273 cell line, Lung (SCLC); read-out: Aza-T-dCyd IC50
How it was run: as §1

[11] = system: 5637; settings: 5637 cell line, Bladder; read-out: Aza-T-dCyd IC50
How it was run: as §1

[12] = system: T98G; settings: Homo sapiens; T98G cell line, CNS (Glioma); read-out: Aza-T-dCyd IC50
How it was run: as §1

[13] = system: Cal 27; settings: Homo sapiens; Cal 27 cell line, Head and Neck; read-out: Aza-T-dCyd IC50
How it was run: as §1

[14] = system: SU-DHL-10; settings: Homo sapiens, SU-DHL10; SU-DHL-10 cell line, B-cell lymphoma; read-out: Aza-T-dCyd IC50
How it was run: as §1

[15] = system: MHH-PREB-1; settings: Homo sapiens; MHH-PREB-1 cell line, B-cell lymphoma; read-out: Aza-T-dCyd IC50
How it was run: as §1

[16] = system: SNB-19; settings: Homo sapiens; SNB-19 cell line, CNS (Glioma); read-out: Aza-T-dCyd IC50
How it was run: as §1

[17] = system: NALM-6; settings: Homo sapiens; NALM-6 cell line, ALL; read-out: Aza-T-dCyd IC50
How it was run: as §1

[18] = system: SKO-007; settings: SKO-007 cell line, B-cell myeloma; read-out: Aza-T-dCyd IC50
How it was run: as §1

[19] = system: DOHH-2; settings: Homo sapiens; DOHH-2 cell line, B-cell lymphoma; read-out: Aza-T-dCyd IC50
How it was run: as §1

[20] = system: Hs 688(A).T; settings: Hs 688(A).T cell line, Skin (Melanoma); read-out: Aza-T-dCyd IC50
How it was run: as §1

[21] = system: MES-SA; settings: Homo sapiens; MES-SA cell line, Sarcoma; read-out: Aza-T-dCyd IC50
How it was run: as §1

[22] = system: SCaBER; settings: Homo sapiens; SCaBER cell line, Bladder; read-out: Aza-T-dCyd IC50
How it was run: as §1

[23] = system: MOLT-4; settings: Homo sapiens; MOLT-4 cell line, ALL; read-out: Aza-T-dCyd IC50
How it was run: as §1

[24] = system: ZR-75-1; settings: Homo sapiens; ZR-75-1 cell line, Breast; read-out: Aza-T-dCyd IC50
How it was run: as §1

[25] = system: HT; settings: Homo sapiens; HT cell line, B-cell lymphoma; read-out: Aza-T-dCyd IC50
How it was run: as §1

[26] = system: Capan-1; settings: Homo sapiens; Capan-1 cell line, Pancreas; read-out: Aza-T-dCyd IC50
How it was run: as §1

[27] = system: Caki-1; settings: Homo sapiens; Caki-1 cell line, Kidney; read-out: Aza-T-dCyd IC50
How it was run: as §1

[28] = system: MCF7; settings: Homo sapiens; MCF7 cell line, Breast; read-out: Aza-T-dCyd IC50
How it was run: as §1

[29] = system: CAMA-1; settings: Homo sapiens; CAMA-1 cell line, Breast; read-out: Aza-T-dCyd IC50
How it was run: as §1

[30] = system: CFPAC-1; settings: Homo sapiens; CFPAC-1 cell line, Pancreas; read-out: Aza-T-dCyd IC50
How it was run: as §1

[31] = system: SK-N-AS; settings: Homo sapiens; SK-N-AS cell line, CNS (Neuroblastoma); read-out: Aza-T-dCyd IC50
How it was run: as §1

Nc1ncn([C@H]2CC(O)[C@@H](CO)S2)c(=O)n1 (stereo partly shown) [Aza-T-dCyd, 4′-thio-5-aza-2′-deoxycytidine]
pIC50 [1]: 5.66 | pIC50 [2]: 7.09 | pIC50 [3]: 7.00 | pIC50 [4]: 6.82 | pIC50 [5]: 5.87 | pIC50 [6]: 6.27 | pIC50 [7]: 7.10 | pIC50 [8]: 5.74 | pIC50 [9]: 7.76 | pIC50 [10]: 5.25 | pIC50 [11]: 6.53 | pIC50 [12]: 5.86 | pIC50 [13]: 6.50 | pIC50 [14]: 7.44 | pIC50 [15]: 7.41 | pIC50 [16]: 6.77 | pIC50 [17]: 7.47 | pIC50 [18]: 5.37 | pIC50 [19]: 6.22 | pIC50 [20]: < 5.00 | pIC50 [21]: 6.87 | pIC50 [22]: 6.73 | pIC50 [23]: 7.46 | pIC50 [24]: < 5.00 | pIC50 [25]: 5.99 | pIC50 [26]: 5.48 | pIC50 [27]: 7.07 | pIC50 [28]: 5.19 | pIC50 [29]: < 5.00 | pIC50 [30]: 5.76 | pIC50 [31]: 5.93
